The values below come from ChEMBL document CHEMBL1201862, “PubChem BioAssay data set” (2004).

Common to all, as to test: inhibition of tumour cell growth, NCI panel, 48 h
Experiment [1] has as its system 786-0.
Experiment [2] concerns ACHN.
For experiment [3], the system named is HCT-116.
Experiment [4] has as its system HT-29.
For experiment [5], the system named is Hs-578T.
The subject of experiment [6] is IGROV-1.
In experiment [7] the test system is KM12.
Experiment [8] has as its system MDA-N.
The subject of experiment [9] is Malme-3M.
The test system of experiment [10] is NCI-H226.
Experiment [11] has as its system NCI-H23.
Experiment [12] deals with OVCAR-4.
The test system of experiment [13] is OVCAR-5.
The subject of experiment [14] is RPMI-8226.
Experiment [15] concerns RXF 393.
Experiment [16] deals with SF-295.
The subject of experiment [17] is SK-MEL-2.
The test system of experiment [18] is SW-620.
Experiment [19] concerns UACC-257.

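Growth conditions: 96-well plates. Treatment: test compound, 48 hours, 5 concentrations. Analysis: linear interpolation between bracketing concentrations; unreached endpoints set to highest concentration. At the GI50, growth is halved.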 The source made the active and inactive calls. Cut-off read from the data, not from the text of the source: active = GI50 up to about 1.1 µM and inactive = higher.

Consider `Nc1nc(N)c(/N=N/c2ccc(C(=O)O)c(O)c2)c(N)n1`, for which the GI50 in experiment [1], in experiment [2], in [3], in [4], in experiment [5] and in [6] was > 100 µM (inactive) in each case. Also, the GI50 in [7] was > 100 µM (inactive); in experiment [8] it was > 100 µM (inactive); in experiment [9], > 100 µM (inactive); in experiment [10], > 100 µM (inactive); in experiment [11] it was > 100 µM (inactive); in [12] it was 18.5 µM (inactive). The GI50 in experiment [13], in experiment [14], in experiment [15], in [16], in experiment [17] and in [18] was > 100 µM (inactive) throughout. The GI50 in [19] is > 100 µM (inactive).
In the case of `O=[N+]([O-])/C=C/c1cn(CCCCCn2cc(/C=C/[N+](=O)[O-])c3ccccc32)c2ccccc12`, the GI50 in experiment [1] is 0.392 µM (active); in [2], 4.66 µM (inactive); in experiment [3], 0.283 µM (active); in [4], 1.56 µM (inactive); in experiment [5] it was 1.87 µM (inactive); in experiment [6], 2.23 µM (inactive). Further, the GI50 was 1.69 µM (inactive) in experiment [7]; 0.322 µM (active) in experiment [8]; 3.54 µM (inactive) in experiment [9]; 0.805 µM (active) in [10]; 4.02 µM (inactive) in experiment [11]; 2.44 µM (inactive) in [12]. The GI50 in experiment [13] is 9.55 µM (inactive); in experiment [14] it was 0.24 µM (active); in experiment [15] it was 0.582 µM (active); in [16] it was 9.89 µM (inactive); in experiment [17] it was 13.5 µM (inactive); in [18], 0.682 µM (active). Moreover, the GI50 in [19] is 3.27 µM (inactive).
For `O=C1Nc2ccccc2SC1=C(C(=O)c1ccccc1)C(=O)c1ccccc1`, the GI50 was 43.7 µM (inactive) in experiment [1]; 42.1 µM (inactive) in [2]; 29.5 µM (inactive) in experiment [3]; 32.4 µM (inactive) in [4]; 31.6 µM (inactive) in [5]; 42.3 µM (inactive) in experiment [6]. Further, the GI50 in experiment [7] is 34 µM (inactive); in [8] it was 19.7 µM (inactive); in experiment [9], > 85.7 µM (inactive); in experiment [10], 45.8 µM (inactive); in experiment [11], 29.7 µM (inactive); in experiment [12], 43.2 µM (inactive). Moreover, the GI50 in [13] was 27.8 µM (inactive); in [14] it was 28.8 µM (inactive); in experiment [15], 55 µM (inactive); in [16], 17.1 µM (inactive); in experiment [17], 24.8 µM (inactive); in [18], 34.6 µM (inactive). For the same compound, the GI50 in experiment [19] is 33.3 µM (inactive).
In the case of `CC(C)(C)C=C=C(C(C)(C)C)P(=O)(O)O`, the GI50 in experiment [1], in [2], in experiment [3], in experiment [4], in [5] and in experiment [6] was > 100 µM (inactive) in each case. The GI50 in experiment [7], in experiment [8], in [9], in experiment [10], in experiment [11] and in experiment [12] was > 100 µM (inactive) throughout. In addition, the GI50 is > 100 µM (inactive) in experiment [13]; < 0.01 µM (active) in experiment [14]; > 100 µM (inactive) in experiment [15]; > 100 µM (inactive) in [16]; > 100 µM (inactive) in experiment [17]; > 100 µM (inactive) in experiment [18]. Besides, the GI50 in [19] was > 100 µM (inactive).
With `Cc1cc(=O)n2nc(CN3CCCCC3)sc2n1`, the GI50 in experiment [1], in experiment [2], in experiment [3], in experiment [4], in experiment [5] and in [6] was > 100 µM (inactive) throughout. Further, the GI50 in experiment [7], in experiment [8], in [9], in [10], in experiment [11] and in experiment [12] was > 100 µM (inactive) each time. The GI50 in [13], in [14], in experiment [15], in [16], in experiment [17] and in experiment [18] was > 100 µM (inactive) throughout. Further, the GI50 in experiment [19] is > 100 µM (inactive).
`CCCCON1C[C@@H](O)C(O)[C@@H](O)C1` (some centres not stated): the GI50 in [1], in [2], in [3], in experiment [4], in experiment [5] and in experiment [6] was > 100 µM (inactive) each time. Besides, the GI50 in [7], in experiment [8], in [9], in [10], in [11] and in [12] was > 100 µM (inactive) in each case. Also, the GI50 in experiment [13], in [14], in experiment [15], in [16], in experiment [17] and in [18] was > 100 µM (inactive) in each case. The GI50 in [19] was > 100 µM (inactive).
As for `CCOC(=O)CCC(NC(=O)C(N)Cc1ccc(N(CCCl)CCCl)cc1)C(=O)OCC` (configuration not stated), the GI50 was 0.475 µM (active) in [1]; 0.0532 µM (active) in [2]; 0.375 µM (active) in experiment [3]; 0.716 µM (active) in [4]; 2.24 µM (inactive) in experiment [5]; 1.17 µM (inactive) in experiment [6]. Moreover, the GI50 was 1.52 µM (inactive) in [7]; 1.64 µM (inactive) in experiment [8]; 0.234 µM (active) in [9]; 6.14 µM (inactive) in experiment [10]; 0.43 µM (active) in [11]; 0.624 µM (active) in [12]. Further, the GI50 in experiment [13] was 2.47 µM (inactive); in experiment [14], 1.82 µM (inactive); in [15] it was 0.515 µM (active); in experiment [16] it was 2.88 µM (inactive); in experiment [17], 3.01 µM (inactive); in experiment [18] it was 1.29 µM (inactive). Also, in [19], the GI50 was 1.22 µM (inactive).
Turning to `CC(=O)/C(=N\N=C(N)N)c1ccccc1`, the GI50 in experiment [1], in experiment [2], in experiment [3], in experiment [4], in experiment [5] and in experiment [6] was > 100 µM (inactive) throughout. In addition, the GI50 in [7], in experiment [8], in experiment [9], in experiment [10], in experiment [11] and in experiment [12] was > 100 µM (inactive) throughout. The GI50 in experiment [13], in experiment [14], in experiment [15], in experiment [16], in experiment [17] and in [18] was > 100 µM (inactive) in each case. For the same compound, in experiment [19], the GI50 is > 100 µM (inactive).
